Measurements from PubChem BioAssay (NCI).
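Step 1: Grow cells in 96-well plates. Step 2: Expose to compound for 48 hours at 5 concentrations. Step 3: Interpolate endpoints linearly; if unreached, use highest concentration. At the GI50, growth is halved. Definition used: TGI = concentration required for complete inhibition of growth.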

How the values were obtained:
Assay in all cases: NCI anticancer screen, dose series, 48 h
[1] = system: HOP-62 NSCLC
[2] = system: HCC-2998 colon
[3] = system: HS 578T breast
[4] = system: HL-60(TB) leukemia
[5] = system: OVCAR-3 ovarian
[6] = system: M14 melanoma
[7] = system: HOP-92 NSCLC
[8] = system: SK-MEL-5 melanoma
[9] = system: DU-145 prostate
[10] = system: SK-MEL-2 melanoma
[11] = system: SK-MEL-28 melanoma
[12] = system: OVCAR-4 ovarian
[13] = system: A498 renal
[14] = system: CAKI-1 renal
[15] = system: SF-539 CNS
[16] = system: MDA-MB-231 breast
[17] = system: LOX IMVI melanoma
[18] = system: NCI/ADR-RES ovarian
[19] = system: UACC-257 melanoma
[20] = system: CCRF-CEM leukemia
[21] = system: HCT-15 colon
[22] = system: PC-3 prostate
[23] = system: HT29 colon
[24] = system: MCF7 breast
[25] = system: SN12C renal
[26] = system: BT-549 breast
[27] = system: MOLT-4 leukemia
[28] = system: KM12 colon
[29] = system: A549 NSCLC

CC(C)(C)C(=O)c1c(C(F)(F)F)n([O-])c2cc(Cl)c(Cl)cc2[n+]1=O showed a GI50 [1] of 1530 nM, a TGI [1] of 2890 nM and a GI50 [2] of 172 nM. It also gave a TGI [2] of 465 nM, a GI50 [3] of 160 nM and a TGI [3] of 554 nM. The GI50 [4] was 188 nM, the TGI [4] was 446 nM and the GI50 [5] was 125 nM. For the same compound, the TGI [5] was 363 nM, the GI50 [6] was 998 nM and the TGI [6] was 2570 nM. The GI50 [7] was 1470 nM, the TGI [7] was 2780 nM and the GI50 [8] was 277 nM. It also gave a TGI [8] of 1100 nM, a GI50 [9] of 353 nM and a TGI [9] of 803 nM. It also gave a GI50 [10] of 903 nM, a TGI [10] of 2280 nM and a GI50 [11] of 618 nM. For the same compound, the TGI [11] was 1600 nM, the GI50 [12] was 1140 nM and the TGI [12] was 2370 nM. The GI50 [13] was 1330 nM, the TGI [13] was 2600 nM and the GI50 [14] was 248 nM. For the same compound, the TGI [14] was 639 nM, the GI50 [15] was 563 nM and the TGI [15] was 1040 nM. The GI50 [16] was 1440 nM, the TGI [16] was 2900 nM and the GI50 [17] was 1040 nM. It also gave a GI50 [18] of 567 nM, a TGI [18] of 1370 nM and a GI50 [19] of 1280 nM. It also gave a TGI [19] of 2860 nM, a GI50 [20] of 619 nM and a TGI [20] of 1190 nM. The GI50 [21] was 257 nM, the TGI [21] was 652 nM and the GI50 [22] was 1580 nM. It also gave a TGI [22] of 3030 nM, a GI50 [23] of 192 nM and a TGI [23] of 546 nM. The GI50 [24] was 168 nM, the TGI [24] was 566 nM and the GI50 [25] was 778 nM. For the same compound, the TGI [25] was 2090 nM, the GI50 [26] was 769 nM and the TGI [26] was 2110 nM. It also gave a GI50 [27] of 437 nM, a TGI [27] of 987 nM and a GI50 [28] of 190 nM. For the same compound, the TGI [28] was 450 nM, the GI50 [29] was 952 nM and the TGI [29] was 2390 nM.
